Measurements as given in patent US20180344690A1, “Methods and Formulation for Enhancing Response to Radiotherapy” (The Board of Trustees of the Leland Stanford Junior …, priority 2017, published 2018).
Where two headings read alike, the source gives them in different places.

How the values were obtained:
[1] = system: glioblastoma
Procedure: Normalized relative cerebral blood volume (rCBV) ratios were calculated by the mean rCBV within the 95% isodose radiation field one month post-radiation as compared to contralateral white matter outside of the radiation field.

[2] = system: U251 human GBM cells
[3] = cited from earlier work
[4] = cited from earlier work; remark: listed apart in the source
[5] = system: CD34+ stem cells; conditions: cited from earlier work
[6] = cited from earlier work; remark: listed apart in the source

## c1cc(CN2CCCNCCNCCCNCC2)ccc1CN1CCCNCCNCCCNCC1 [Plerixafor]
[1]; as of Feb. 7, 2017, expected 20%, p<0.03, Fisher's exact test
  rate of out of field recurrence: 77%
[1]; one month after radiation therapy, patients receiving Plerixafor compared to control, p<0.02
  rCBV measured by DSC-MRI within the 95% isodose field: significant reduction
[1]; one-month post radiation therapy, Plerixafor compared to control patients
  rCBV out of the radiation field: similar
[2]; after 40 days, radiotherapy and Plerixafor compared to radiotherapy alone (FIG. 5A)
  blood flow to a tumor: lower blood flow
[2]; over 80 days, radiation and Plerixafor (continuous infusion) compared to other treatment groups (FIG. 5B, 5C)
  tumor size: reduced tumor size
[3]; 10, 20, 40, 80 μg/kg
  Cmax and AUC0-∞ across the four dose levels: dose proportionality
[3]; IV, 40 μg/kg
  Cmax: 292.8±67.0
[3]; IV, 80 μg/kg
  Cmax: 503.9±29.6
[3]; SC, 40 μg/kg
  Cmax: 123.5±27.9
[3]; SC, 80 μg/kg
  Cmax: 238.3±17.3
[3]; following a single dose, bi-exponential elimination from plasma
  terminal elimination half-life: 3.5 to 5 h
[3]; following subcutaneous administration
  time of peak plasma levels: 0.5 to 1 h
[3]; human, in vivo
  bioavailability: 80-90%
[4]; 240 μg/kg SC with G-CSF
  median terminal half-life: 4.6 h
[4]; 240 μg/kg SC with G-CSF, in most patients
  time of peak plasma concentrations: 0.5 h
[4]; after Plerixafor injection, all patients
  time of maximum fold increase in circulating cells: approximately 10 hours
[4]; range, 3.0- to 5.5-fold
  median maximum increase in the number of circulating cells from baseline: 4.2 fold
[5]; Plerixafor 240 μg/kg added to G-CSF
  proportion of patients with NHL able to mobilize minimum (2×10^6 cells/kg) and target (5×10^6 cells/kg) CD34+ cells: significantly increased the proportion of patients
[5]; Plerixafor added to G-CSF
  apheresis days to reach both targets: significantly fewer apheresis days
[6]; animals, adverse neurologic effects
  MTD: approximately 70 mg/m^2
[6]; including severe dyspnea, tremors, ventral recumbency, convulsions at higher dosages
  dose limiting toxicities (DLTs): primarily adverse neurologic events
